Assay results published in patent US12049475B2, “Bisphosphonate drug conjugates” (BRISE PHARMACEUTICALS CO., LTD., priority 2018, dated 2024).
Entries after “also recorded” stand apart in the source; their conditions may differ.

Legend:
CED mice [1] = test: CED mouse model, 8-week treatment: μCT of tibia and fracture incidence; conditions: for total BV/TV: among all groups; for bone fracture incidence: 100 μg/kg i.p. once a week, 2-month (8-week) treatment
Procedure: All transgenic animals used in this study are as described in the Animals section. […] During cell counting, microCT analysis and histological staining analysis, all manual quantification is performed in a blind manner to eliminate observer bias. Animals were randomly assigned to groups for experiments in CED animal studies.
(§1) Mice: According to Tang et al., Nat Med. 15:757-765 (2009), a mutation in the coding area of the TGF-β1 latency protein was generated in mice, and the active form of TGF-β1 was secreted by osteoblasts. […] All mice received the intraperitoneal injections once a week for 2 months, beginning at 1 month of age until sacrifice at 3 months of age. The tibias of the mice were collected and analyzed.
Microcomputed tomography analysis: Tibia collected from mice were dissected to remove soft tissue, fixed overnight in 70% ethanol, and analyzed with a high-resolution microcomputed tomography (μCT) imaging system (MicroCT40; Scanco Medical AG, Basserdorf, Switzerland). The scanner was set at a voltage of 55 kVp and a current of 109 μA. The resulting two-dimensional longitude-sectional images or three-dimensional whole-bone images are shown in gray scale. Three-dimensional structural parameters, total bone volume per tissue volume, cortical bone volume, cortical bone thickness, and cortical bone porosity were given.

CED mice [2] = test: CED mouse model: histology and immunofluorescence of tibia (HE, TRAP, Ocn, Osx, Col1, CD31/Emcn, LepR); assay type: in vivo; conditions: for number of Col1+ cells compared with Littermate group / number of Ocn+ cells compared with Littermate group / number of Osx+ cells compared with Littermate group: co-staining with Emcn; for LepR+pSmad2/3+ dual positive BMSC (immunofluorescence): tibia sections
Procedure: as §1
(§2) Immunostaining was performed using a standard protocol.
Immunofluorescence staining was performed using as described. […] Secondary antibodies conjugated with fluorescence were added, and slides were incubated at room temperature for 1 h while avoiding light. Sections were microphotographed to perform histomorphometric measurements (Olympus DP71). The quantitative histomorphometric analysis was conducted in a blinded fashion with OsteoMeasureXP Software (OsteoMetrics, Inc.). […]

CED mice [3] = test: CED mouse model: flow cytometry of tibia bone marrow cells; assay type: in vivo; conditions: for CD31+Emcn+ double positive cells (FACS of tibia bone marrow): 8-week treatment; for number of LepR+ cells in bone marrow (FACS): distal one-third of tibia, 2 months of treatment
Procedure: Flow cytometry: Bone marrow cells in the distal one-third of tibia were collected from each group (n=6) after 2 months of conjugate treatment. Red blood cells were lysed in commercial ACK lysis buffer (Quality Biological, Inc., 118-156-101). After centrifugation (1,200 r.p.m. for 5 min at room temperature), cell pellets were resuspended and fixed in 4% PFA. Cells were then washed with 0.1% BSA in PBS and counted. One million cells per milliliter were permeabilized in 0.1% Triton X-100 before blocking in 3% FACS buffer (PBS, 3% FBS, and 0.1% NaN3 sodium azide) for 30 min on ice. Cells were incubated with endomucin antibody (Santa Cruz, sc-65495), Leptin Receptor (R&D, 1:100, AF497), or isotype control antibody for 1 h at 37° C. in a dark room and then washed twice with 0.1% BSA in PBS. After washing, cells were stained with APC-conjugated CD31 antibody (R&D Systems, FAB3628A) for 45 min. Cells were acquired immediately after washing with 3% FACS buffer. Probes were analyzed using a FACS Calibur flow cytometer and CellQuest software (Becton Dickinson).

[4] = pharmaceutical data, cited from earlier work
CED mice [5] = conditions: intraperitoneal injection; Nat Med. 15:757-765 (2009); cited from earlier work
[6] = system: TGF-β1 signaling (pSmad2) in HeLa cells; test: Western blot of pSmad2 in HeLa cells exposed to TGF-β1; assay type: cell-based, human
Procedure: (§3) Cell culture: HeLa cells and BMSCs from mice were cultured in Dulbecco's Modified Eagle's Medium (GIBCO) supplemented with 10% fetal bovine serum (FBS; Sigma), 100 units/ml penicillin, 100 μg/ml streptomycin (Sigma), and 2 mM glutamine and were incubated at 37° C. in a humidified chamber supplemented with 5% CO2. […] Cells were then exposed to 5 ng/ml of recombinant human TGF-β1 (R&D Systems) for 30 min and processed for cell staining and Western blotting.
Western blot: HeLa cells were lysed with […] and […] (Roche), and mixed with an equal volume of 2×SDS-PAGE sample buffer with DTT. Samples were boiled and cleared by centrifuge, separated by SDS-PAGE, and transferred onto nitrocellulose (NC) membranes. Membranes were blocked with 5% non-fat dry milk and incubated with primary antibodies at 4° C. overnight. Primary antibodies include rabbit anti-Smad2 antibody (Cell Signaling Technology, 3122, 1:1,000) and rabbit anti-Phospho-Smad2 (Ser465/467) antibody (Cell Signaling Technology, 3108, 1:1,000). HRP-conjugated goat anti-rabbit IgG (Santa Cruz Biotechnology, 2054, 1:5,000) was used as secondary antibody. Signals were detected with Super Signal West Dura Extended Duration Substrate (Thermo Scientific).

[7] = system: TGF-β1 signaling (pSmad2/3) in BMSCs; test: pSmad2/3 immunofluorescence staining of BMSCs exposed to TGF-β1; assay type: cell-based, mice; conditions: 10 μM for 1 h, 24 h, 48 h, then 5 ng/ml TGF-β1 for 30 min
Procedure: as §3
Cell staining: BMSCs were washed 3 times with PBS and fixed by 4% paraformaldehyde (PFA) for 30 min. Cells were then washed 3 times with PBS and incubated with 3% BSA, 0.1% Triton in PBS for 1 h. […] Secondary antibodies conjugated with fluorescence were added, and plates were incubated at room temperature for 1 h while avoiding light. Cells were counted under the microscope (Olympus DP71).

wild-type mice = test: 7-day survival of wild-type mice after conjugate injection; assay type: in vivo
Procedure: FIG. 1 presents graphs showing that a conjugate of the present disclosure, Compound 1, delivers a TβR1I specifically to bone and releases it in a time-dependent manner. […] Part (C) presents quantification of the Western-blot band intensity in (B). Data are presented as relative level of p-SMAD2/SMAD2 ratio normalized to DMSO condition. […] Part (E) presents quantification data of pSmad2/3^+ cells in (D). […] Of 6 mice in the 5 mg/kg group, 2 died in 7 days. […] Part (H) presents quantification data of pSmad2/3^+ cells in (G). In FIG. 1, the following conventions are used: NS, not significant. **P<0.01, ****P<0.0001 determined by multifactorial ANOVA. All data are reported as the mean±s.d.

TGF-β1 signaling pathway = test: CED mouse model: pSmad2/3 immunohistochemistry of tibia; assay type: in vivo, mice; conditions: 8-week treatment, compared with CED group and ALN group
Procedure: as §1, §2
Immunofluorescence staining was performed using as described. […] Secondary antibodies conjugated with fluorescence were added, and slides were incubated at room temperature for 1 h while avoiding light. Sections were microphotographed to perform histomorphometric measurements (Olympus DP71). The quantitative histomorphometric analysis was conducted in a blinded fashion with OsteoMeasureXP Software (OsteoMetrics, Inc.). The number of positively stained cells in the whole tibia subchondral bone area per specimen was counted in five sequential sections per mouse in each group.

[8] = system: heart, liver, lung, and kidney; test: HE and pSmad2/3 staining of heart, liver, kidney and lung; assay type: in vivo, mice; conditions: after conjugate administration
Procedure: as §2

[9] = system: TGF-β1 signaling in tibias; test: pSmad2/3 staining of tibias after intraperitoneal injection (bone delivery and release); conditions: 100 μg/kg intraperitoneal injection, compared with vehicle control
Procedure: Histochemistry, immunohistochemistry, and immunofluorescence: At the time of euthanasia, tibias were collected and fixed in 10% buffered formalin for 48 h, decalcified in 10% EDTA (pH 7.4) for 14 d, and then embedded in paraffin. […] Immunostaining was performed using a standard protocol. Sections were incubated with primary antibodies to mouse pSmad2/3 (Santa Cruz Biotechnology Inc., 1:50, sc-11769) and osteocalcin (Takara Bio Inc., 1:200, M137) overnight at 4° C. For immunohistochemical staining, a liquid Diaminobenzidine (DAB)+Chromogen System (Dako, K3468) was used to detect immunoreactivity, followed by counterstaining with hematoxylin and eosin (Sigma-Aldrich, MHS16).
Compound 1 was also tested for tissue distribution following intraperitoneal injection. […] It was then determined whether the conjugate delivered TβR1I (TGF-beta type 1 receptor inhibitor) specifically to bone and hydrolyzed over time (intraperitoneal injection, DMSO, 100 μg/kg of ALN, Inhibitor, or Conjugate).

bone metastasis = conditions: literature; cited from earlier work

NCCCC(O)(P(=O)(O)O)P(=O)(O)O [ALN, 4-amino-1-hydroxybutylidene-1,1-bisphosphonic acid monosodium trihydrate, reference compound]
bone porosity rate (CED mice [1]; 100 μg/kg per week, 8 weeks): significantly increased
cortical bone thickness (CED mice [1]; 100 μg/kg per week, 8 weeks): significantly increased
total cortical bone volume (CED mice [1]; 100 μg/kg per week, 8 weeks): decreased
total BV/TV (CED mice [1]; 100 μg/kg per week, 8 weeks): no significant difference
bone fracture incidence (CED mice [1]; CED mice): 50%
CD31+Emcn+ vessel surfaces (immunofluorescence) (CED mice [2]; 8-week treatment): highly increased
bone formation in diaphysis bone marrow (HE staining) (CED mice [2]; 8-week treatment, compared with Conjugate and Littermate group): aberrant bone formation was found
number of Col1+ cells compared with Littermate group (CED mice [2]): significantly increased
number of Ocn+ cells compared with Littermate group (CED mice [2]): significantly increased
number of Osx+ cells compared with Littermate group (CED mice [2]): significantly increased
LepR+pSmad2/3+ dual positive BMSC (immunofluorescence) (CED mice [2]): significantly increased
CD31+Emcn+ double positive cells (FACS of tibia bone marrow) (CED mice [3]): highly increased
number of LepR+ cells in bone marrow (FACS) (CED mice [3]): significantly increased
time to reach bone [4]: less than 2 hours
fraction that reaches bone ([4]; the rest is excreted in urine): 50-70%

Cc1cccc(-c2[nH]c(C(C)(C)C)nc2-c2ccc3c(c2)OCO3)n1 [SB505124]
bone remodeling defects in CED mice (CED mice [5]): rescued bone remodeling defects

O=C(NCCCC(O)(P(=O)(O)O)P(=O)(O)O)OCCOc1ccc2c(-c3c(-c4ccccn4)nn4c3CCC4)ccnc2c1 [Compound 1, (1-hydroxy-4-(((2-((4-(2-(pyridin-2-yl)-5,6-dihydro-4H-pyrrolo[1,2-b]pyrazol-3-yl)quinolin-7-yl)oxy)ethoxy)carbonyl)amino)butane-1,1-diyl)bis(phosphonic acid)]
expression level of pSmad2 (Western blot) ([6]; HeLa cells, 10 μM for 1 h, 24 h, 48 h, then 5 ng/ml TGF-β1 for 30 min): significantly reduced
start of TβR1I release in cells (after) ([6]; Western blotting and immunofluorescence staining): ≥ 24 h
number of pSmad2/3-positive cells (immunofluorescence) [7]: significantly reduced
7-day survival (wild-type mice; 50 μg/kg, one intraperitoneal injection per week, n=6): no mice death; also recorded: survived for 7 days
7-day survival (wild-type mice; 100 μg/kg, one intraperitoneal injection per week, n=6): no mice death; also recorded: survived for 7 days
7-day survival (wild-type mice; 1 mg/kg, one intraperitoneal injection per week, n=6): no mice death; also recorded: survived for 7 days
mice that died in 7 days (of 6) (wild-type mice; 5 mg/kg, one intraperitoneal injection per week): 2
7-day survival (wild-type mice; 10 mg/kg, one intraperitoneal injection per week): all died in 3 days
safe dose (wild-type mice; intraperitoneal administration, wild-type mice): below 5 mg/kg per week
cortical bone parameters compared with Littermate group (CED mice [1]; 100 μg/kg per week, 8 weeks): no significant difference
total BV/TV (CED mice [1]; 100 μg/kg per week, 8 weeks): no significant difference
bone morphology of tibia (μCT three-dimensional reconstruction) (CED mice [1]; 100 μg/kg per week, 8 weeks, compared with CED and ALN-treated mice): significantly improved
total BV/TV distribution (CED mice [1]; 100 μg/kg per week, 8 weeks, tibia cross-sections): restored
bone parameters (CED mice [1]; 2-month treatment): restored bone parameters
side effects (CED mice [1]; CED mice): no obvious side effects
bone fracture incidence (CED mice [1]; CED mice): 8.3%
dose that effectively attenuated CED progression (CED mice [1]; CED mice, intraperitoneal): 100 μg/kg per week
pSmad2/3 positive cells in tibia (TGF-β1 signaling pathway): significantly decreased
bone remodeling of CED mice (CED mice [2]; 2-month treatment): restored normal bone remodeling
CD31+Emcn+ vessel surfaces (immunofluorescence) (CED mice [2]; 8-week treatment): rescued abnormal vessel formation
number of TRAP+ cells (CED mice [2]; 8-week treatment, diaphysis): decreased
number of Ocn+ cells (CED mice [2]; 8-week treatment, diaphysis, TRAP and Ocn co-staining): decreased
level of TGF-β1 (CED mice [2]; CED mice): decreased
number and distribution of Osx+, Col1α+, and Ocn+ cells (CED mice [2]; CED mice): rescued
type H vessels (CED mice [2]; CED mice): significantly decreased
number of Col1+ cells compared with Littermate group (CED mice [2]): no significant difference
number of Ocn+ cells compared with Littermate group (CED mice [2]): no significant difference
number of Osx+ cells compared with Littermate group (CED mice [2]): no significant difference
LepR+pSmad2/3+ dual positive BMSC (immunofluorescence) (CED mice [2]): significantly decreased
CD31+Emcn+ double positive cells (FACS of tibia bone marrow) (CED mice [3]): significantly reduced
number of LepR+ cells in bone marrow (FACS) (CED mice [3]; listed as conjugate): significantly decreased
HE staining and pSmad2/3 staining of heart, liver, lung, and kidney [8]: normal tissue structures and TGF-β1 activation; also recorded: does not affect other organs
TGF-β1 signaling in tibias (pSmad2/3 staining) [9]: significantly reduced; also recorded: inhibited in a time-dependent manner

OCCOc1ccc2c(-c3c(-c4ccccn4)nn4c3CCC4)ccnc2c1 [Compound S-3, reference compound]
TGF-β1 signaling in tibias (pSmad2/3 staining) [9]: did not inhibit TGF-β1 signaling; also recorded: did not show significant differences

Fc1ccc(Cl)cc1-c1nc(Nc2ccncc2)c2nccnc2n1 [SD-208]
bone metastasis in mice (bone metastasis): effective in treating mice with bone metastases

c1ccc(-c2nn3c(c2-c2ccnc4cc(OCCN5CCOCC5)ccc24)CCC3)nc1 [LY2109761]
bone metastasis in mice (bone metastasis): reduce a potential of bone metastasis
